“Also recorded” adds a separate entry of the source. Where two headings read alike, the source gives them in different places.
Assays:
Estrogen receptor-α = details: cited from earlier work
TRα and TRβ [1] = experiment: GH3.TRE-Luc TR reporter assay, antagonist setup (0.25 nM T3); type: cell-based, rat
TRα and TRβ [2] = experiment: GH3.TRE-Luc TR reporter assay, agonist setup; type: cell-based, rat; details: 1 μM; vs 0.1% DMSO
AR-EcoScreen cells = experiment: Cell viability (resazurin) in AR-EcoScreen cells; details: agonist assay
firefly luciferase = target: T1, firefly luciferase (Photinus pyralis, UniProt P08659); experiment: Luciferase inhibition assay in GH3.TRE-Luc cell lysates; type: biochemical; details: cell lysate, read-out: inhibition of firefly luciferase luminescence signal
T1 construct: Only implied by 'CP' in the vector name, from my own knowledge; expressed in transfected cells; host or cells: GH3.TRE-Luc cells induced with 0.25 nM T3, lysate
Procedure: Serial dilutions for each treatment were prepared in the cell lysate and incubated at room temperature for 30 min.

human (h)AR = target: T2, human (h)AR (Homo sapiens, UniProt P10275); experiment: AR-EcoScreen hAR transcriptional activation assay, antagonist setup (500 pM DHT); type: cell-based; details: vs 0.1% DMSO with 500 pM DHT
T2 sequence (P10275 1-920): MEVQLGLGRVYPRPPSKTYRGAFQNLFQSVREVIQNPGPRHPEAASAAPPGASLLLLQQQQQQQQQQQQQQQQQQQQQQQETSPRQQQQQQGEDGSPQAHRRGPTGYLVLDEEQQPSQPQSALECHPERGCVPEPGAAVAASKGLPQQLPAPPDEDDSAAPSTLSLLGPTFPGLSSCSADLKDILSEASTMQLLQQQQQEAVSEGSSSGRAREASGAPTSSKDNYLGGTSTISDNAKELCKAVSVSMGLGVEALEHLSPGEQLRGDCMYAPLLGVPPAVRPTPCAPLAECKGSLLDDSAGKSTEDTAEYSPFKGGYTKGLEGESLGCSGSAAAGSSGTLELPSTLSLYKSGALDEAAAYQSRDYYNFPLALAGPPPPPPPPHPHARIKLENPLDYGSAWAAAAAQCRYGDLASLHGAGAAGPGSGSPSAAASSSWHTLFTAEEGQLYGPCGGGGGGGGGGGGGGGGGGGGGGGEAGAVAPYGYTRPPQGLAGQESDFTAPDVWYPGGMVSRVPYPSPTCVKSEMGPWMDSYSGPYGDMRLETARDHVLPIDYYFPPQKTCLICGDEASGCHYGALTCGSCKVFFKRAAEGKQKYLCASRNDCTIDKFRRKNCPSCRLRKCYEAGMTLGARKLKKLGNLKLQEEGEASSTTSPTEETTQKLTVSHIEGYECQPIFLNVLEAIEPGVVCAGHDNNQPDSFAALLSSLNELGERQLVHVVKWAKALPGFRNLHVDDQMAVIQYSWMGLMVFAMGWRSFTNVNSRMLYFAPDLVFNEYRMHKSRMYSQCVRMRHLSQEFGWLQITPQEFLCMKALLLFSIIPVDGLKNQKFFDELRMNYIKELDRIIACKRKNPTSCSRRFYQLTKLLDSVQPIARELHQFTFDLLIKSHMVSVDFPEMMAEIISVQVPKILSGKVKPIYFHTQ

GR = target: T3, GR (Homo sapiens, UniProt P04150); experiment: MDA-kb2 GR reporter assay, antagonist setup (500 nM HC); type: cell-based; parameters: constitutively expressed high levels of functional GR and AR; host or cells: MDA-kb2
T3 sequence (P04150 1-777): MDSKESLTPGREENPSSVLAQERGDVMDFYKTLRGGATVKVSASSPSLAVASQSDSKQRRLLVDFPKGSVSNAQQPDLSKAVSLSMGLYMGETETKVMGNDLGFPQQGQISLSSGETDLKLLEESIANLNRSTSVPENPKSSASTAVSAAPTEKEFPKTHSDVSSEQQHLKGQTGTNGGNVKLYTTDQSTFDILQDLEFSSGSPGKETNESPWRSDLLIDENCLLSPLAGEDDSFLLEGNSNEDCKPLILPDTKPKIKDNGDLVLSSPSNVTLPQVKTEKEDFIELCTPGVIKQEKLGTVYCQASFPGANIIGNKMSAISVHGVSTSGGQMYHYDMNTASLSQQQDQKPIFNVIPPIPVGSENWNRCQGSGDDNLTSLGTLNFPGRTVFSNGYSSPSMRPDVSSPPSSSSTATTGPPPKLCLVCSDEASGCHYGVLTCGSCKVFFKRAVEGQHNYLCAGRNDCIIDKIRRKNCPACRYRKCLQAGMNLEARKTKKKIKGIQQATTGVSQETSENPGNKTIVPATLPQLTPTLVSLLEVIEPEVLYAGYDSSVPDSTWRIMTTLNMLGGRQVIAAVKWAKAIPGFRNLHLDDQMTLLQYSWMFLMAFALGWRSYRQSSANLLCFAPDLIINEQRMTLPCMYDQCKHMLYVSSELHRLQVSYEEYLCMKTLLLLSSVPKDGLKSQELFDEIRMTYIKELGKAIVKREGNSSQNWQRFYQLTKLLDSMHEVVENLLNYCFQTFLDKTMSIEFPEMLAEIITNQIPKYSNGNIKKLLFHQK

Androgen receptor = details: cited from earlier work
AR = target: T4, AR (Rattus norvegicus, UniProt P15207); experiment: PolarScreen AR Competitor binding affinity assay; details: in words; tested up to 10 μM
T4 construct: purchased Invitrogen
T4 sequence (P15207 651-902 limits assumed): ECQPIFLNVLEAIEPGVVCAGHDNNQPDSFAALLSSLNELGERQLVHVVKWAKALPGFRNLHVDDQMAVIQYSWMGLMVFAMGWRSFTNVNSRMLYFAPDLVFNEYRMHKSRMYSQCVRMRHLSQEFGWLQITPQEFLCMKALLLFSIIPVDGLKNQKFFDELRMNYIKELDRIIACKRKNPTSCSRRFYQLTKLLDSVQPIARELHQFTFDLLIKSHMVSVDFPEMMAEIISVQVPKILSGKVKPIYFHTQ

[3] = BG1-ERE cells, ref Ahn et al. 2008

T1 sequence (P08659 whole entry): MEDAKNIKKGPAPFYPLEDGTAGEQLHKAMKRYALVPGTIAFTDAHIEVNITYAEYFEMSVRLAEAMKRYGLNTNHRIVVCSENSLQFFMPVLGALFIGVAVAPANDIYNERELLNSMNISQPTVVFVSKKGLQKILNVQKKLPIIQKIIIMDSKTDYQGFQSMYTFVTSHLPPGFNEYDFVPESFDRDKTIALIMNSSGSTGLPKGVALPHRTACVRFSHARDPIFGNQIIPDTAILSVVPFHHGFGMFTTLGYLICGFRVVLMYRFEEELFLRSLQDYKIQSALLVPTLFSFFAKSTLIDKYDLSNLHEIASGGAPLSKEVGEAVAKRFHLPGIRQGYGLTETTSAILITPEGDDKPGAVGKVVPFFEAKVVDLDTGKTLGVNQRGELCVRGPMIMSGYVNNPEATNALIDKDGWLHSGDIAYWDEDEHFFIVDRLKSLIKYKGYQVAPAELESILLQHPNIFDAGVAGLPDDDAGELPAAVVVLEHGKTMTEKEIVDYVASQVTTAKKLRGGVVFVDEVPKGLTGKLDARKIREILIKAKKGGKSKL

SMILES: O=C(Nc1ccc(Cl)cc1)Nc1ccc(Cl)c(Cl)c1 [Triclocarban, 1-(4-Chlorophenyl)-3-(3,4-dichlorophenyl) urea]
- effect on ER with β-estradiol (Estrogen receptor-α; [3]): Enhancer of β-estradiol activity in BG1-ERE cells ([Ahn et al. 2008])
- effect on ER, compound alone (Estrogen receptor-α; [3]): Agonist in BG1-ERE cells ([Ahn et al. 2008])
- effect on ERα (Estrogen receptor-α; hERα-HeLa-9903 cells, ref Tarnow et al. 2013): Enhancer of β-estradiol activity in hERα-HeLa-9903 cells ([Tarnow et al. 2013])
- lower TR RTA than spike-in control (TRα and TRβ [1]; 1 μM, vs 0.1% DMSO with 0.25 nM T3): 44.3%
- TR antagonist activity, call (TRα and TRβ [1]; GH3.TRE-Luc): Antagonist
- concentration with TR antagonist activity (TRα and TRβ [1]; GH3.TRE-Luc): 1 µM
- baseline TR-mediated transcriptional activity lower than vehicle control (agonist setup) (TRα and TRβ [2]): > 50%
- highest noncytotoxic concentration (AR-EcoScreen cells): 2.5 µM
- inhibition at 50 µM (firefly luciferase): 46.7%
- higher AR RTA than spike-in control (human (h)AR; 1 μM): 30.7%
- higher AR RTA than spike-in control (human (h)AR; 2.5 μM): 39.4%
- lower GR RTA than spike-in control (GR; 5 μM, vs 0.1% DMSO with 500 nM HC): 38.9%
- GR antagonist activity, call (GR; MDA-kb2): Antagonist
- concentration with GR antagonist activity (GR; MDA-kb2): 5 µM
- effect on AR (Androgen receptor; HEK-2933Y cells, ref Ahn et al. 2008, Chen et al. 2008): Enhancer of testosterone activity in HEK-2933Y cells ([Ahn et al. 2008]; [Chen et al. 2008])
- effect on AR (Androgen receptor; MDA-kb2 cells, ref Christen et al. 2010, Kolšek et al. 2014a, Tarnow et al. 2013): Enhancer of 5α-dihydrotestosterone activity in MDA-kb2 cells ([Christen et al. 2010]; [Kolšek et al. 2014a]; [Tarnow et al. 2013])
- effect on AR (Androgen receptor; T47D-ARE cells, ref Ahn et al. 2008): Enhancer of testosterone activity in T47D-ARE cells ([Ahn et al. 2008])
- binding affinity assay on isolated AR, result (AR): did not show binding; also recorded: No binding; also recorded: negative

Reference: PMC7567334 (Environmental Health Perspectives, 2020)
